Structures can show the parent of a compound that is named as a salt.
What was measured:
[1] = tested on: human prostate cancer LNCaP cells; assay: Antiproliferative effect in LNCaP cells (CellTiter-Glo, 6 days); format: cell-based; conditions: 144 h
Description: In this experiment, the inhibitory effect of the test compound on cell proliferation in human prostate cancer LNCaP cells was detected.
The tumor cell lines were cultured in a 37° C., 5% CO2 incubator under the above culture conditions. Regular passage, and cells in logarithmic growth phase were taken for plating.
2. Cell Plating • (1) Cells were stained with trypan blue and viable cells were counted; • (2) the cell concentration was adjusted to an appropriate concentration;
• (3) 90 μL of cell suspension per well was added to the culture plate as shown in the table above, and cell-free culture medium was added to the blank control well; • (4) the culture plate was cultured overnight in a 37° C., 5% CO2 incubator with 100% relative humidity.
Preparation of stock solution storage plate with 400 times the initial concentration of the compound: The compound was serially diluted with DMSO from the highest concentration to the lowest concentration. The solution was prepared as needed each time.
Preparation of Working Solution with 10 Times the Initial Concentration of Compounds and Cell Treatment with Compounds • (1) To a V-bottom 96-well plate was added 78 μL of cell culture medium, and 2 μL of compound was pipetted from a stock solution storage plate with 400 times the initial concentration of the compound and added to the cell culture medium of the 96-well plate. To vehicle control and blank control was added 2 μL of DMSO. After the compound or DMSO was added, blowing with a pipette and mixing well were carried out. • (2) Administration: 10 μL of a working solution with 10 times the initial concentration of the compound was added to the cell culture plate. To vehicle control and blank control was added 10 μL of DMSO-cell culture medium mixture. • (3) The 96-well plate was returned to the incubator and cultured for 6 days.
The following steps were performed according to the instructions of Promega CellTiter-Glo luminescent cell viability assay kit (Promega-G7573). • (1) CellTiter-Glo buffer was melted and brought to room temperature; • (2) CellTiter-Glo substrate was brought to room temperature; • (3) CellTiter-Glo working solution was prepared by adding 100 mL of CellTiter-Glo buffer to a vial of CellTiter-Glo substrate to dissolve the substrate; • (4) the mixture was slowly vortexed and shaken to be fully dissolved; • (5) the cell culture plate was taken out and left for 30 minutes to equilibrate to room temperature; • (6) 50 μL of CellTiter-Glo working solution was added per well (equal to half the volume of cell culture medium per well). The cell plate was wrapped in aluminum foil to be protected from light; • (7) the culture plate was shaken on an orbital shaker for 2 minutes to induce cell lysis; (8) the culture plate was left at room temperature for 10 minutes to stabilize the luminescent signal; • (9) the luminescent signal was detected on a 2104 EnVision plate reader.
The inhibition rate (IR) of the test compound was calculated using the following formula: IR (%)=(RLU vehicle control−RLU compound)/(RLU vehicle control−RLU blank control)×100%. The inhibition rates of compounds at different concentrations were calculated in Excel, and then GraphPad Prism software was used to plot inhibition curves and calculate relevant parameters, including minimum inhibition rate, maximum inhibition rate, and ICSO.

[2] = tested on: human prostate cancer LNCaP xenograft tumor; assay: In vivo pharmacodynamic study, LNCaP subcutaneous xenograft tumor CB-17 SCID model; design: species or system CB-17 SCID mice; conditions: WX002 30 mg/kg (D0-D3), 50 mg/kg (D4-D21) p.o. BID
Description: Human prostate cancer LNCaP cells (ECACC-89110211) were cultured in vitro in a monolayer under the culture conditions of RPMI-1640 medium with 10% fetal bovine serum, […], and 100 μg/mL streptomycin, and cultured in a 37° C., 5% CO2 incubator.
Routine digestion with trypsin-EDTA was performed twice a week for passaging. When the cell saturation density was 80% to 90% and the number of cells reached the required level, the cells were collected, counted, and inoculated.
CB-17 SCID mice, 6 to 8 weeks old, male, weighing 18 to 22 g.
0.2 mL (1×10^7) of LNCaP cells (with matrix gel, volume ratio of 1:1) were subcutaneously inoculated on the right back of each mouse. The mice were subjected to surgical castration when the average tumor volume reached approximately 80 mm^3, and grouping and administration were initiated when the average tumor volume reached 166 mm^3.
Tumor diameters were measured twice a week with a vernier caliper. The formula for calculating tumor volume was: V=0.5a×b^2, wherein a and b represented the long and short diameters of the tumor, respectively.
The antitumor efficacy of compounds was evaluated by TGI (%). TGI (%) reflected the tumor growth inhibition rate. TGI (0%)=[(1−(average tumor volume at the end of administration in a treatment group−average tumor volume at the beginning of administration in this treatment group))/(average tumor volume at the end of treatment in the vehicle control group−average tumor volume at the beginning of treatment in the vehicle control group)]×100%.

| Compound | IC50 [1] | Tumor volume (Day 0) ([2]; Day 0, start of administration) | TGI (Day 21) ([2]; Day 21) | Tumor volume (Day 21) ([2]; Day 21) |
| --- | --- | --- | --- | --- |
| N#Cc1ccc(O[C@H]2CC[C@H](NC(=O)c3ccc(N4CCC(CN5CCN(c6cccc7c6ccc6occ(C8CCC(=O)NC8=O)c67)CC5)CC4)nn3)CC2)cc1Cl (some centres unmarked) [Hydrochloride of WX015] | 45 nM |  |  |  |
| CC1(C)C(=O)N(c2ccc(C#N)c(C(F)(F)F)c2)C(=S)N1c1ccc(OCCN2CCN(CC(=O)Nc3ccc4c(C5CCC(=O)NC5=O)coc4c3)CC2)c(F)c1 (centres unmarked) [WX002] | 46 nM | 166 ± 18 mm^3 | 89.1% | 219 ± 39 mm^3 |

Source: patent US20240190851A1, “FURAN FUSED RING-SUBSTITUTED GLUTARIMIDE COMPOUND” (MEDSHINE DISCOVERY INC., priority 2021, published 2024)
